Assay results published in publication PMC7179128, “Characterizations and Assays of α-Glucosidase Inhibition Activity on Gallic Acid Cocrystals: Can the Cocrystals be Defined as a New Chemical Entity During Binding with the α-Glucosidase?” (Molecules, 2020).

Experiments:
[1] = Powder dissolution test in 0.1 mol∙L^−1 HCl; assay type: physicochemical; conditions: after 25 min, 37 ± 0.5 °C
Protocol: Co., Ltd., Shanghai, China) at 25 °C in five different solutions (pH 1, 2, 4, 8 and water, respectively) using the shake-flask method. Excess sample was added in the solvent and the suspension was shaken for 72 h in an air bath. The suspension was filtered through a 0.45 μm Millipore filter. Then, the GA concentration was determined using HPLC (Agilent 1200, Santa Clara, CA, USA). […] Approximately 50 mg of the sample (here single GA and cocrystals equivalent to 50 mg of GA) were placed in 900 mL dissolution media. Four milliliters of the suspensions were taken at appropriate intervals and immediately replaced by 4 mL of fresh dissolution media. All samples were filtered through a 0.45 μm Millipore filter. The concentration of GA in all samples were determined by HPLC. All tests were repeated thrice. Bioavailability in vivo was assayed using SD rats. […] The intragastric suspensions were prepared by suspending GA or the cocrystal (equivalent to same amount of GA) in 5% sodium carboxymethyl cellulose. Thereafter, the intragastric suspensions were orally administered to the rats at a single dose of 50 mg∙kg^-1. An approximately 500 μL blood sample was obtained from the eye canthus and collected into 1.5 mL heparinized plastic centrifuge tubes at the set time point after intragastric administration. […] The pharmacokinetic parameters were calculated using DAS 2.0 software.

[2] = Oral bioavailability / pharmacokinetics in SD rats; assay type: in vivo; conditions: rat, single dose 50 mg∙kg^−1 (GA equivalent), n = 6, GA in plasma
Protocol: Co., Ltd., Shanghai, China) at 25 °C in five different solutions (pH 1, 2, 4, 8 and water, respectively) using the shake-flask method. Excess sample was added in the solvent and the suspension was shaken for 72 h in an air bath. The suspension was filtered through a 0.45 μm Millipore filter. Then, the GA concentration was determined using HPLC (Agilent 1200, Santa Clara, CA, USA). […] Approximately 50 mg of the sample (here single GA and cocrystals equivalent to 50 mg of GA) were placed in 900 mL dissolution media. Four milliliters of the suspensions were taken at appropriate intervals and immediately replaced by 4 mL of fresh dissolution media. All samples were filtered through a 0.45 μm Millipore filter. The concentration of GA in all samples were determined by HPLC. All tests were repeated thrice. Bioavailability in vivo was assayed using SD rats. […] The intragastric suspensions were prepared by suspending GA or the cocrystal (equivalent to same amount of GA) in 5% sodium carboxymethyl cellulose. Thereafter, the intragastric suspensions were orally administered to the rats at a single dose of 50 mg∙kg^-1. An approximately 500 μL blood sample was obtained from the eye canthus and collected into 1.5 mL heparinized plastic centrifuge tubes at the set time point after intragastric administration. GA was extracted from plasma by protein precipitation. One hundred microliters of plasma was mixed with internal standard solution (20 μL) in the centrifuge tube; then, the solution of acetonitrile formic acid (2%, v/v) was added to precipitate the protein. […] Then, the supernatant was taken for determining the concentration of GA by the LC-MS/MS (MS:3200 QTRAP, AB SCIEX, MA, USA, LC: Agilent1200, Santa Clara, CA, USA) method. The blood concentration-time curve was drawn by taking blood sampling time as the horizontal coordinate and GA concentration as the vertical coordinate. The pharmacokinetic parameters were calculated using DAS 2.0 software.

α-glucosidase = α-glucosidase (Saccharomyces cerevisiae, UniProt P53341); assay: α-glucosidase inhibitory activity in vitro (pNPG substrate, absorbance at 405 nm); assay type: biochemical; conditions: in vitro inhibition rate, Figure 4
α-glucosidase, sequence (P53341 whole entry): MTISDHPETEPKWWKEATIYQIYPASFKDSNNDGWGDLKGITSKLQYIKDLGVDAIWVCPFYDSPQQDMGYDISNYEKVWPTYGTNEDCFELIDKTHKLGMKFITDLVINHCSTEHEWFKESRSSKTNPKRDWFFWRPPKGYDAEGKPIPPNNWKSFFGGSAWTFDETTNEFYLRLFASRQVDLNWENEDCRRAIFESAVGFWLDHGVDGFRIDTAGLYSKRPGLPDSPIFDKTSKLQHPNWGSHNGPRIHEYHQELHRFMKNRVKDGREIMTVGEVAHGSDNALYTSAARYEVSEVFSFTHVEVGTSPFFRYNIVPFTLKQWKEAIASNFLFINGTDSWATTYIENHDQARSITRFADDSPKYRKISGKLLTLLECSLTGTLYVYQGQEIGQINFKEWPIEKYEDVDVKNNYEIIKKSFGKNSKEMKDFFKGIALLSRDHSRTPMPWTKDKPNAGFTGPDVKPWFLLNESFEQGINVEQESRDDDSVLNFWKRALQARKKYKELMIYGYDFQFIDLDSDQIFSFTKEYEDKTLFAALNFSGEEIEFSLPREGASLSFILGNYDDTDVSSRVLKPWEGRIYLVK
Protocol: Briefly, accurately weighed α-glucosidase was dissolved in 0.1 mol∙L^−1 potassium phosphate buffer (pH 6.8) to produce 50 μL of enzyme solution with a concentration of 1.0 U∙mL^−1. Fifty microliters of enzyme solution and 50 μL of test sample were mixed in a well of a microtiter plate to incubate for 10 min at 37 °C. Three millimoles of pNPG in the same buffer was used as a substrate solution. After pre-incubation at 37 °C for 10 min, 50 μL of pNPG solution was added into above enzyme solution. The enzymatic reaction was allowed to proceed at 37 °C for 10 min, following the measurement of 4-nitrophenol absorbance at 405 nm on a microplate spectrophotometer. The solution without α-glucosidase was used as a blank. The solution without the test sample was used as a test. The solution without the test sample and α-glucosidase was used as a control.
IC50 values were obtained as the mean of three independent experiments, which were constructed by testing a series of concentrations (i.e., three curves were obtained, each in triplicate).

Work on `O=C(O)c1cc(O)c(O)c(O)c1` [GA, gallic acid] yielded a cumulative dissolution [1] of 80%, an AUC(0-inf) [2] of 4200 ± 1200 ng·h/mL and an AUC(0-t) [2] of 4100 ± 1200 ng·h/mL. For the same compound, the Cmax [2] was 1500 ± 500 ng/mL.
For `O=C1CCC(=O)N1` [succinimide], the “α-glucosidase inhibitory activity (in words)” value (α-glucosidase) was “no inhibitory activity”.
